# Experimental data published in paper PMC7093416, “Selective USP7 inhibition elicits cancer cell killing through a p53-dependent mechanism” (Scientific Reports, 2020).
# System: panel of 484 cancer cell lines
# Assay: PRISM cancer cell line profiling, 5 days
# Assay type: cell-based
# Parameters: AUC: unit not given beside the values
# Method: Cancer cell line profiling was performed using the Broad’s PRISM platform. Cell treatment and data analysis were performed as described in Yu et al[42]. Raw Luminex signal was converted to AUC values for each cell line as described. The resulting AUC profile for each compound was modeled against DepMap using the limma package in R[71]. Because hotspot mutation analysis was performed against DepMap, TP53 annotations in Fig. 6c,d are directly from DepMap.
smiles,measurement,setting,value
COc1ccc(C2=N[C@@H](c3ccc(Cl)cc3)[C@@H](c3ccc(Cl)cc3)N2C(=O)N2CCNC(=O)C2)c(OC(C)C)c1 [Nutlin-3A],AUC,LCLC103H_LUNG,1.118
same,AUC,LI7_LIVER,1.226
same,AUC,LK2_LUNG,1.169
same,AUC,LMSU_STOMACH,1.203
same,AUC,LN18_CENTRAL_NERVOUS_SYSTEM,0.9973
same,AUC,LN229_CENTRAL_NERVOUS_SYSTEM,1.064
same,AUC,LNCAPCLONEFGC_PROSTATE,0.906
same,AUC,LOUNH91_LUNG,1.066
same,AUC,LOVO_LARGE_INTESTINE,1.199
same,AUC,LOXIMVI_SKIN,0.8907
same,AUC,LS180_LARGE_INTESTINE,0.8897
same,AUC,LS411N_LARGE_INTESTINE,1.29
same,AUC,LS513_LARGE_INTESTINE,0.8844
same,AUC,LS1034_LARGE_INTESTINE,1.251
same,AUC,LU99_LUNG,0.8923
same,AUC,LUDLU1_LUNG,1.181
same,AUC,LXF289_LUNG,1.109
same,AUC,MALME3M_SKIN,0.9143
same,AUC,MCAS_OVARY,1.217
same,AUC,MCF7_BREAST,0.9374
same,AUC,MDAMB175VII_BREAST,0.8089
same,AUC,MDAMB231_BREAST,1.111
same,AUC,MDAMB435S_SKIN,1.081
same,AUC,MDAMB436_BREAST,1.063
same,AUC,MDAMB468_BREAST,1.113
same,AUC,MELHO_SKIN,1.198
same,AUC,MELJUSO_SKIN,0.855
same,AUC,MESSA_SOFT_TISSUE,0.8635
same,AUC,MEWO_SKIN,1.1265
same,AUC,MFE280_ENDOMETRIUM,1.185
same,AUC,MFE296_ENDOMETRIUM,1.073
same,AUC,MFE319_ENDOMETRIUM,1.2827
same,AUC,MG63_BONE,1.195
same,AUC,MHHES1_BONE,1.218
same,AUC,MIAPACA2_PANCREAS,1.097
same,AUC,MKN1_STOMACH,1.379
same,AUC,MKN7_STOMACH,1.0858
same,AUC,MKN45_STOMACH,0.8665
same,AUC,MKN74_STOMACH,1.252
same,AUC,MON_SOFT_TISSUE,0.7179
same,AUC,MPP89_PLEURA,1.087
same,AUC,MSTO211H_PLEURA,0.822
same,AUC,NB1_AUTONOMIC_GANGLIA,0.8777
same,AUC,NCIH23_LUNG,0.9857
same,AUC,NCIH28_PLEURA,0.8619
same,AUC,NCIH226_LUNG,0.8738
same,AUC,NCIH292_LUNG,0.8581
same,AUC,NCIH322_LUNG,1.162
same,AUC,NCIH358_LUNG,1.107
same,AUC,NCIH446_LUNG,1.181
same,AUC,NCIH460_LUNG,0.8926
same,AUC,NCIH520_LUNG,1.322
same,AUC,NCIH522_LUNG,1.212
same,AUC,NCIH596_LUNG,1.199
same,AUC,NCIH650_LUNG,1.249
same,AUC,NCIH661_LUNG,1.081
same,AUC,NCIH727_LUNG,1.026
same,AUC,NCIH747_LARGE_INTESTINE,1.189
same,AUC,NCIH838_LUNG,0.9622
same,AUC,NCIH841_LUNG,1.117
same,AUC,NCIH1048_LUNG,1.2735
same,AUC,NCIH1299_LUNG,1.108
same,AUC,NCIH1339_LUNG,1.0925
same,AUC,NCIH1355_LUNG,1.119
same,AUC,NCIH1373_LUNG,1.06
same,AUC,NCIH1435_LUNG,1.3405
same,AUC,NCIH1437_LUNG,1.108
same,AUC,NCIH1563_LUNG,0.9521
same,AUC,NCIH1568_LUNG,1.038
same,AUC,NCIH1573_LUNG,1.073
same,AUC,NCIH1581_LUNG,1.043
same,AUC,NCIH1623_LUNG,1.145
same,AUC,NCIH1648_LUNG,1.123
same,AUC,NCIH1650_LUNG,0.973
same,AUC,NCIH1651_LUNG,1.183
same,AUC,NCIH1693_LUNG,1.133
same,AUC,NCIH1703_LUNG,1.137
same,AUC,NCIH1792_LUNG,1.259
same,AUC,NCIH1793_LUNG,1.1676
same,AUC,NCIH1838_LUNG,1.199
same,AUC,NCIH1915_LUNG,1.099
same,AUC,NCIH1944_LUNG,0.8303
same,AUC,NCIH1975_LUNG,1.115
same,AUC,NCIH2009_LUNG,0.9703
same,AUC,NCIH2023_LUNG,1.159
same,AUC,NCIH2030_LUNG,1.1142
same,AUC,NCIH2052_PLEURA,0.8463
same,AUC,NCIH2077_LUNG,0.9696
same,AUC,NCIH2087_LUNG,1.211
same,AUC,NCIH2110_LUNG,1.143
same,AUC,NCIH2122_LUNG,0.8016
same,AUC,NCIH2126_LUNG,1.1108
